Laboratory results from patent publication US20260364168A1, “USE OF PROTEIN KINASE C (PKC) ACTIVATING COMPOUNDS AS AN ADJUVANT” (priority 2022, published 2026).
Where two headings read alike, the source gives them in different places.

Key:
NFκB = NFκB luciferase reporter gene assay in HeLa-NFκB luciferase reporter cell line; format: cell-based; conditions: 16 h; for EC50: 37 °C, luciferase/CTG normalized, read-out: NFκB-luc HeLa cells EC50
Description: The PKC activator compounds were evaluated for their effect on NFκB expression using a luciferase reporter gene expression system. (The indicators “K-101,” “K101” and “K-101A” may be used interchangeably in this disclosure and appended figures).
A HeLa-NFκB luciferase reporter cell line (Wuxi Biology) was used to assess a group of PKC activator compounds for their ability to activate NFκB-driven transcription. Two sets of cells at 20000 cells/well were plated, grown overnight, and then treated for 16 h at 37 °C with DMSO, 6 doses of each compound, or TNF-α (final concentration of 10 ng/mL, positive control) in triplicates. One set of cells was assayed for luciferase activity (Promega, Cat #E1500) and the other set was assayed to determine the number of viable cells (for cell number normalization) using CellTiter-Glo (CTG) kit (Promega, Cat #G7570) according to manufacture's procedures. Normalized data (luciferase value/CTG value) were analyzed using GraphPad Prism5 to calculate EC50 for each compound (see Table 3).

human PBMC cells = assay: cytokine/chemokine gene expression (TaqMan) in human PBMC; conditions: 4 h; for fold induction at 0.01 µM / fold induction at 0.03 µM / fold induction at 0.1 µM / fold induction at 1 µM: Homo sapiens, PBMC
Description: Materials and methods: 100 million frozen human PBMC cells were purchased from Allcells (100 million/vial). The cells were thawed and recovered for one day before 1.5-1.8 million cells in 900 μl RPMI1640 with 10% heat-inactivated FBS were seeded in each well of 24-well plates. Various compounds in DMSO stock (500×) were diluted 50-fold with the same media to make 10× compound stock for most compounds. 1 μL of 5 mg/mL PMA was diluted to 99 μL of the media to make 50 μg/mL PMA. For PMA with ionomycin treatment condition, 1.5 μL of 50 μg/mL PMA and 3 μL of 500 μg/mL ionomycin were added to 145.5 μL of the media to make 10× compound stock. Sources of the compounds are as follows: PMA from Abcam (Abcam #ab120297); Ionomycin from Sigma (Sigma #I0634); Resiquimod from Sellect Chem. (Selleckchem #S8133); and LPS from Sigma (Sigma #L6143).
Each treatment condition was performed in duplicates. After treatment, mRNA was extracted from cells and samples from duplicates were combined for TaqMan gene expression assays (ThermoFisher) in triplicates. Expression of 19 genes (IL-1β, IL-2, IL-4, IL-6, IL-8, IL-10, IL-13, IL-18, IL-12p70/IL-12A, IL-12p40/IL-12B, IFN-α, IFN-γ, GM-CSF/CSF2, CCL2/MCP-1, MIP1a/CCL3, TNF-α, MX1, OAS1, ISG15) along with two housekeeping gene controls, 18S and GAPDH, was determined. Target gene expression in each sample was determined by relative quantification (RQ) using the comparative Ct (ΔΔCT) method. This method measures the Ct difference (ΔCT) between target gene and the housekeeping genes (18S & GAPDH), then compares the ΔCT values of treated samples to DMSO-treated control samples. The mean ΔCT value of the DMSO-treated control from two independent DMSO-treated control samples was used. The relative expression level of target gene was calculated by using the equation:
relative expression=2^−ΔΔCT

[1] = 0.03 μM, vs DMSO, 240 min, 0.03 µM
[2] = 0.10 μM, vs DMSO, 240 min, 0.1 µM

CC1=C[C@H]2[C@@]3(O)[C@H](C)C[C@]4(OC(=O)[C@@H](N)Cc5ccccc5)[C@H]([C@@H]3C=C(CO)C[C@]2(O)C1=O)C4(C)C
EC50 (NFκB; Homo sapiens, HeLa): 200 to 600 nM

CC1=C[C@H]2[C@@]3(O)[C@H](C)C[C@]4(OC(=O)C(N)CCCCCCc5ccccc5)[C@H]([C@@H]3C=C(CO)C[C@]2(O)C1=O)C4(C)C (stereo partly drawn)
EC50 (NFκB): 1 to 10 nM | IL-2 gene relative expression (human PBMC cells; [1]): 3.59 | IL-13 gene relative expression (human PBMC cells; [1]): 5.87 | IL-18 gene relative expression (human PBMC cells; [1]): 0.19 | TNF-α gene relative expression (human PBMC cells; [1]): 2.91 | CCL2 gene relative expression (human PBMC cells; [2]): 0.40 | GM-CSF gene relative expression (human PBMC cells; [2]): 21.01 | IFNγ gene relative expression (human PBMC cells; [2]): 11.33 | IL-6 gene relative expression (human PBMC cells; [2]): 6.15 | IL-10 gene relative expression (human PBMC cells; [2]): 0.12 | IL-13 gene relative expression (human PBMC cells; [2]): 121.59 | MIP1a (CCL3) gene relative expression (human PBMC cells; [2]): 4.95 | fold induction at 0.01 µM (human PBMC cells; read-out: CCL2 gene relative expression, 0.01 μM, 4 h, vs DMSO): 1.81 | fold induction at 0.03 µM (human PBMC cells; read-out: CCL2 gene relative expression, 0.03 μM, 4 h, vs DMSO): 6.53 | fold induction at 0.01 µM (human PBMC cells; read-out: GM-CSF gene relative expression, 0.01 μM, 4 h, vs DMSO): 1 | fold induction at 0.03 µM (human PBMC cells; read-out: GM-CSF gene relative expression, 0.03 μM, 4 h, vs DMSO): 1.88 | fold induction at 0.01 µM (human PBMC cells; read-out: IFN-α gene relative expression, 0.01 μM, 4 h, vs DMSO): 0.73 | fold induction at 0.03 µM (human PBMC cells; read-out: IFN-α gene relative expression, 0.03 μM, 4 h, vs DMSO): 1.21 | fold induction at 0.1 µM (human PBMC cells; read-out: IFN-α gene relative expression, 0.10 μM, 4 h, vs DMSO): 0.8 | fold induction at 0.01 µM (human PBMC cells; read-out: IFNγ gene relative expression, 0.01 μM, 4 h, vs DMSO): 1.46 | fold induction at 0.03 µM (human PBMC cells; read-out: IFNγ gene relative expression, 0.03 μM, 4 h, vs DMSO): 1.49 | fold induction at 0.01 µM (human PBMC cells; read-out: IL-1β gene relative expression, 0.01 μM, 4 h, vs DMSO): 0.38 | fold induction at 0.03 µM (human PBMC cells; read-out: IL-1β gene relative expression, 0.03 μM, 4 h, vs DMSO): 0.94 | fold induction at 0.1 µM (human PBMC cells; read-out: IL-1β gene relative expression, 0.10 μM, 4 h, vs DMSO): 3 | fold induction at 0.01 µM (human PBMC cells; read-out: IL-2 gene relative expression, 0.01 μM, 4 h, vs DMSO): 1.32 | fold induction at 0.1 µM (human PBMC cells; read-out: IL-2 gene relative expression, 0.10 μM, 4 h, vs DMSO): 4.98 | fold induction at 0.03 µM (human PBMC cells; read-out: IL-4 gene relative expression, 0.03 μM, 4 h, vs DMSO): 1.19 | fold induction at 0.1 µM (human PBMC cells; read-out: IL-4 gene relative expression, 0.10 μM, 4 h, vs DMSO): 2.78 | fold induction at 0.01 µM (human PBMC cells; read-out: IL-6 gene relative expression, 0.01 μM, 4 h, vs DMSO): 0.57 | fold induction at 0.03 µM (human PBMC cells; read-out: IL-6 gene relative expression, 0.03 μM, 4 h, vs DMSO): 1.23 | fold induction at 0.01 µM (human PBMC cells; read-out: IL-8 gene relative expression, 0.01 μM, 4 h, vs DMSO): 0.44 | fold induction at 0.03 µM (human PBMC cells; read-out: IL-8 gene relative expression, 0.03 μM, 4 h, vs DMSO): 0.66 | fold induction at 0.1 µM (human PBMC cells; read-out: IL-8 gene relative expression, 0.10 μM, 4 h, vs DMSO): 0.44 | fold induction at 0.01 µM (human PBMC cells; read-out: IL-10 gene relative expression, 0.01 μM, 4 h, vs DMSO): 1.59 | fold induction at 0.03 µM (human PBMC cells; read-out: IL-10 gene relative expression, 0.03 μM, 4 h, vs DMSO): 0.86 | fold induction at 0.01 µM (human PBMC cells; read-out: IL-12p40 gene relative expression, 0.01 μM, 4 h, vs DMSO): 0.34 | fold induction at 0.03 µM (human PBMC cells; read-out: IL-12p40 gene relative expression, 0.03 μM, 4 h, vs DMSO): 0.38 | fold induction at 0.01 µM (human PBMC cells; read-out: IL-12p70 gene relative expression, 0.01 μM, 4 h, vs DMSO): 1.05 | fold induction at 0.03 µM (human PBMC cells; read-out: IL-12p70 gene relative expression, 0.03 μM, 4 h, vs DMSO): 0.96 | fold induction at 0.1 µM (human PBMC cells; read-out: IL-12p70 gene relative expression, 0.10 μM, 4 h, vs DMSO): 0.74 | fold induction at 0.01 µM (human PBMC cells; read-out: IL-13 gene relative expression, 0.01 μM, 4 h, vs DMSO): 0.37 | fold induction at 0.01 µM (human PBMC cells; read-out: IL-18 gene relative expression, 0.01 μM, 4 h, vs DMSO): 0.63 | fold induction at 0.1 µM (human PBMC cells; read-out: IL-18 gene relative expression, 0.10 μM, 4 h, vs DMSO): 0.05 | fold induction at 0.01 µM (human PBMC cells; read-out: ISG15 gene relative expression, 0.01 μM, 4 h, vs DMSO): 0.94 | fold induction at 0.03 µM (human PBMC cells; read-out: ISG15 gene relative expression, 0.03 μM, 4 h, vs DMSO): 0.97 | fold induction at 0.1 µM (human PBMC cells; read-out: ISG15 gene relative expression, 0.10 μM, 4 h, vs DMSO): 1.57 | fold induction at 0.01 µM (human PBMC cells; read-out: MIP1a (CCL3) gene relative expression, 0.01 μM, 4 h, vs DMSO): 1.29 | fold induction at 0.03 µM (human PBMC cells; read-out: MIP1a (CCL3) gene relative expression, 0.03 μM, 4 h, vs DMSO): 1.67 | fold induction at 0.01 µM (human PBMC cells; read-out: MX1 gene relative expression, 0.01 μM, 4 h, vs DMSO): 0.77 | fold induction at 0.03 µM (human PBMC cells; read-out: MX1 gene relative expression, 0.03 μM, 4 h, vs DMSO): 0.65 | fold induction at 0.1 µM (human PBMC cells; read-out: MX1 gene relative expression, 0.10 μM, 4 h, vs DMSO): 1.06 | fold induction at 0.01 µM (human PBMC cells; read-out: OAS1 gene relative expression, 0.01 μM, 4 h, vs DMSO): 0.85 | fold induction at 0.03 µM (human PBMC cells; read-out: OAS1 gene relative expression, 0.03 μM, 4 h, vs DMSO): 0.55 | fold induction at 0.1 µM (human PBMC cells; read-out: OAS1 gene relative expression, 0.10 μM, 4 h, vs DMSO): 0.71 | fold induction at 0.01 µM (human PBMC cells; read-out: TNF-α gene relative expression, 0.01 μM, 4 h, vs DMSO): 1.34 | fold induction at 0.1 µM (human PBMC cells; read-out: TNF-α gene relative expression, 0.10 μM, 4 h, vs DMSO): 6.52

CCOCc1nc2c(N)nc3ccccc3c2n1CC(C)(C)O [Resiquimod, reference compound]
IL-6 induction compared to DMSO control (human PBMC cells): > 400 fold | IL-12p40 expression (in words) (human PBMC cells): highly induced | ISG15 expression (in words) (human PBMC cells): highly induced | MX1 expression (in words) (human PBMC cells): highly induced | OAS1 expression (in words) (human PBMC cells): highly induced | fold induction at 1 µM (human PBMC cells; read-out: CCL2 gene relative expression): 3.73 | fold induction at 1 µM (human PBMC cells; read-out: GM-CSF gene relative expression): 8.79 | fold induction at 1 µM (human PBMC cells; read-out: IFN-α gene relative expression): 1.47 | fold induction at 1 µM (human PBMC cells; read-out: IFNγ gene relative expression): 1.28 | fold induction at 1 µM (human PBMC cells; read-out: IL-1β gene relative expression): 102 | fold induction at 1 µM (human PBMC cells; read-out: IL-2 gene relative expression): 1.21 | fold induction at 1 µM (human PBMC cells; read-out: IL-6 gene relative expression): 487 | fold induction at 1 µM (human PBMC cells; read-out: IL-8 gene relative expression): 9.87 | fold induction at 1 µM (human PBMC cells; read-out: IL-10 gene relative expression): 5.65 | fold induction at 1 µM (human PBMC cells; read-out: IL-12p40 gene relative expression): 786 | fold induction at 1 µM (human PBMC cells; read-out: IL-12p70 gene relative expression): 2.48 | fold induction at 1 µM (human PBMC cells; read-out: IL-13 gene relative expression): 3.52 | fold induction at 1 µM (human PBMC cells; read-out: IL-18 gene relative expression): 1.33 | fold induction at 1 µM (human PBMC cells; read-out: ISG15 gene relative expression): 14.8 | fold induction at 1 µM (human PBMC cells; read-out: MIP1a (CCL3) gene relative expression): 47.7 | fold induction at 1 µM (human PBMC cells; read-out: MX1 gene relative expression): 17 | fold induction at 1 µM (human PBMC cells; read-out: OAS1 gene relative expression): 12.7 | fold induction at 1 µM (human PBMC cells; read-out: TNF-α gene relative expression): 7.38

TNF-α [reference compound]
activation of NFκB luciferase reporter gene expression above DMSO control (NFκB; 10 ng/mL): ~10 fold
